Reference: article PMC9533326 (Cancer discovery, 2021)
Read-outs that look alike come from different tables or passages of the source.

Columns and labels:
relapsed/refractory ALL = settings: https://www.accessdata.fda.gov/drugsatfda_docs/label/2019/021877s010lbl.pdf; cited from earlier work
[1] = design: species or system human; settings: in vivo; for Time post-dose at which Cmax was observed: human
[2] = earlier trial of navitoclax in lymphoid malignancies; cited from earlier work
[3] = for Dose reduction due to TEAEs: 2 patients each; for Discontinuation due to study drug related AEs: all patients; for Drug discontinued due to TEAEs: all patients (venetoclax 11, navitoclax 12 patients)

Molecule | Survival (median OS) reported in studies (relapsed/refractory ALL) | Time post-dose at which Cmax was observed [1] | Dose reduction due to TEAEs [3] | Discontinuation due to study drug related AEs [3] | Drug discontinued due to TEAEs [3] | further results
COc1nc(N)nc2c1ncn2[C@@H]1O[C@H](CO)[C@@H](O)[C@@H]1O [nelarabine] | 4.7 months |  |  |  |  | 
inotuzumab ozogamicin | 7.7 months |  |  |  |  | 
CC1(C)CCC(c2ccc(Cl)cc2)=C(CN2CCN(c3ccc(C(=O)NS(=O)(=O)c4ccc(N[C@H](CCN5CCOCC5)CSc5ccccc5)c(S(=O)(=O)C(F)(F)F)c4)cc3)CC2)C1 [Navitoclax, navitoclax] |  | 4 to 8 h | 4.3% | 10.6% | 25.5% | Impact on venetoclax pharmacokinetics [1]: no significant impact; Maximum tolerated dose [2]: 325 mg/day; Rate of grade 3/4 thrombocytopenia [2]: 52.7%; Recommended phase II dose (RPTD) ([3]; patients weighing <45 kg, in combination with 400 mg adult-equivalent venetoclax): 25 mg; Recommended phase II dose (RPTD) ([3]; patients weighing ≥45 kg (adults), in combination with 400 mg venetoclax): 50 mg
CC1(C)CCC(CN2CCN(c3ccc(C(=O)NS(=O)(=O)c4ccc(NCC5CCOCC5)c([N+](=O)[O-])c4)c(Oc4cnc5[nH]ccc5c4)c3)CC2)=C(c2ccc(Cl)cc2)C1 [Venetoclax, venetoclax] |  | 6 to 8 h | 4.3% | 12.8% | 23.4% | Recommended phase II dose ([3]; adult-equivalent, with navitoclax 50 mg (adults) or 25 mg (<45 kg)): 400 mg; Events of laboratory TLS ([3]; quick ramp-up to 400 mg venetoclax): 2 events
blinatumomab: bispecific antibody | 7.7 months |  |  |  |  | 
